Key:
[1] = test system: wildtype zebrafish; assay: Initial dose-finding study in adult fish, daily oral gavage, survival; type: in vivo; settings: daily gavage of quizartinib at 10 mg/kg, enasidenib at 100 mg/kg, 14 days
Experimental: Drugs at three concentrations (0.01 μM, 0.1 μM and 1 μM) were added to the embryos in E3 medium with (1-phenyl-2-thiourea) PTU at 6 hpf, and the medium was changed every 24 hours. At 4 dpf, embryos were collected and fixed in 4% PFA for SSB staining. […] Adult zebrafish were anesthetized using 0.015% Tricaine. […] Treated zebrafish were then placed into an individual recovery tank with fresh sterile fish water immediately after the gavage procedure. The drug regimen was repeated daily for 14 days. The gavage apparatus was consisted of a 10 μl microliter syringe (Gaoge, Shanghai, China) and a polyethylene tubing (BTPE-50, INTECH, USA), and was adapted from Collymore et al., 2013 and Dang, Michelle, et al., 2016.

[2] = test system: Tg(Runx1:FLT3^ITDIDH2^R172K) and Tg(Runx1:FLT3^ITDIDH2^R140Q) embryos; assay: Drug treatment of double transgenic embryos, SBB staining as surrogate for embryonic myelopoiesis; type: in vivo, zebrafish; settings: drugs at 0.01 μM, 0.1 μM and 1 μM from 6 hpf, stained at 4 dpf
Experimental: (§1) Drugs at three concentrations (0.01 μM, 0.1 μM and 1 μM) were added to the embryos in E3 medium with (1-phenyl-2-thiourea) PTU at 6 hpf, and the medium was changed every 24 hours. At 4 dpf, embryos were collected and fixed in 4% PFA for SSB staining. […] Adult zebrafish were anesthetized using 0.015% Tricaine. […] Treated zebrafish were then placed into an individual recovery tank with fresh sterile fish water immediately after the gavage procedure. The drug regimen was repeated daily for 14 days.

[3] = test system: FLT3^ITD and IDH2 double mutant zebrafish; assay: 14-day oral gavage treatment of adult double transgenic leukemic fish, kidney marrow analysis; type: in vivo; settings: daily oral gavage 14 days, quizartinib 10 mg/kg, enasidenib 100 mg/kg
Experimental: (§2) Zebrafish WKM were harvested from two to twelve months old transgenic or wildtype TU fish. The collected KM was dissociated in 0.9×PBS with 5% fetal bovine serum (FBS) by pipetting and filtered through a 40 μm nylon cell strainer (Corning, NY, USA). The cells were then centrifuged at 500 g for 5 minutes, resuspended, filtered, and washed with 0.9×PBS with 5% (FBS) at least twice. Flow cytometry of the KM was performed using a MoFlo XDP flow cytometer (Beckman coulter). The data was analyzed using FlowJo™ v10.6.1 software. Cytospin preparations were made with 2×10^5 to 3×10^5 cells cytocentrifuged at 400 rpm for 5 minutes onto microscope glass slides (Thermo scientific). The glass slides were dried at room temperature for more than 12 hours, stained with Wright-Giemsa stain, and imaged with Nikon DS-Ri2 digital camera fitted to a Nikon Eclipse Ni-U microscope.
as §1

[4] = test system: Tg(Runx1:FLT3^ITDIDH2^R140Q) zebrafish; assay: 14-day oral gavage treatment of adult Tg(Runx1:FLT3^ITDIDH2^R140Q) fish; type: in vivo; settings: adult Tg(Runx1:FLT3^ITD IDH2^R140Q) double mutant; treatment with Quizartinib and/or Enasidenib, 14 days
Experimental: as §2, §1

[5] = test system: Tg(Runx1:FLT3^ITDIDH2^R172K) zebrafish; assay: 14-day oral gavage treatment of adult Tg(Runx1:FLT3^ITDIDH2^R172K) fish; type: in vivo; settings: adult Tg(Runx1:FLT3^ITDIDH2^R172K) double mutants; treatment with Quizartinib and/or Enasidenib, 14 days
Experimental: as §2, §1

Row | SMILES | fish survival [1] | embryonic myelopoiesis (cytochemical staining with SBB) [2] | blast counts in KM ([3]; alone or combined) | erythroid cells in KM / erythropoiesis ([3]; alone or combined) | neutrophils in KM ([3]; alone or combined) | cellularity in KM ([3]; monotherapy) | spleen size [4] | spleen size [5]
1 | CC(C)(C)c1cc(NC(=O)Nc2ccc(-c3cn4c(n3)sc3cc(OCCN5CCOCC5)ccc34)cc2)no1 [quizartinib, Quizartinib] | compatible with normal fish survival |  |  |  |  |  |  | 
2 | CC(C)(O)CNc1nc(Nc2ccnc(C(F)(F)F)c2)nc(-c2cccc(C(F)(F)F)n2)n1 [enasidenib, Enasidenib] | compatible with normal fish survival | ameliorated the increase in myelopoiesis | reduced blast counts in KM | significant increase in neutrophils and erythroid | significant increase in neutrophils | but not enasidenib monotherapy significantly reduced cellularity | no changes were observed in spleen size | decreased spleen sizes
